Source: paper PMC7525093, “Bis-Quinolinium Cyclophane Blockers of SK Potassium Channels Are Antagonists of M3 Muscarinic Acetylcholine Receptors” (Frontiers in Pharmacology, 2020)

Tests used:
bladder = assay: Isometric bladder ring tension measurement; set-up: species or system mouse; settings: 3.5 μM; 0.5 μM carbachol
Procedure: Mice used in these studies were BALB/C mice from Jackson Labs. All animal procedures were reviewed and approved by the University of Texas Health Science Center at San Antonio Institutional Animal Care and Use Committee. For tracheal constriction studies, animals were deeply anesthetized with isoflurane and then sacrificed by cervical dislocation. Isometric tracheal contraction measurements were performed as previously described ([Semenov et al., 2012]). Trachea were removed and surrounding tissues dissected in ice-cold physiologic saline solution (PSS) consisting of 119 mM NaCl, 4.7 mM KCl, 2.0 mM CaCl2, 1.0 mM KH2PO4, 1.17 mM MgSO4, 18 mM NaHCO3, 0.026 mM EDTA, 11 mM glucose, and 12.5 mM sucrose. Trachea were cut below the pharynx and above the primary bronchus bifurcation. Two metal wires, attached to a force transducer and micrometer (Radnoti, LLC), were threaded into the lumen of the trachea. Trachea were placed into an oxygenated organ bath (95% O2, 5% CO2), at 37°C, pH 7.35 (after bubbling with 95% O2–5% CO2). Tracheal resting tension was readjusted to 1 gram over 1 h and then challenged with 67 mM potassium PSS with NaCl adjusted to 56.7 mM to maintain proper osmolarity (KPS). Trachea were challenged two or more times until reproducible contractile responses were achieved. All subsequent experimental drug responses were normalized to the KPS response. […]

[1] = system: human primary bronchial smooth muscle cells stably transfected with the human M3 muscarinic receptor; assay: Cytosolic calcium imaging in human bronchial smooth muscle cells; type: cell-based
Procedure: TSM cells were placed on a coverslip in a 1 ml perfusion chamber on an inverted microscope and incubated with 20 μM Cal-520 AM dye (AAT Bioquest, Sunnyvale, California, USA) in 0.2% Pluronic F-127 and 1 mM probenecid in HBSS at room temperature for 30 min. The chamber was fitted with a top adaptor and coverslip (Warner Instruments, RC37WC) to establish a closed perfusion chamber. The cells were imaged at 20 second intervals using 488 nm excitation on a Nikon swept-field confocal microscope using slit-scan mode, 2×2 Binning, and 100 millisecond frames.
Due to the loss of functional muscarinic receptors in primary bronchial smooth muscle cells in culture, calcium imaging was performed in human primary bronchial smooth muscle cells (ScienCell, passage 3) stably transfected with the human M3 muscarinic receptor. Human M3 receptor transfected clones were stably selected with G418, and individual clones were expanded to a 10 cm dish and frozen into aliquots, and analyzed after a maximum of two additional passages.

M1 muscarinic receptor = target: T1, M1 muscarinic receptor (Homo sapiens, UniProt P11229); assay: R-CEPIAer ER calcium assay, CHO cells transiently transfected with M1 receptor; type: cell-based
T1 construct: expressed in transfected cells; host or cells: CHO cells, transiently co-transfected with pCMV R-CEPIAer
T1 sequence (P11229 1-460): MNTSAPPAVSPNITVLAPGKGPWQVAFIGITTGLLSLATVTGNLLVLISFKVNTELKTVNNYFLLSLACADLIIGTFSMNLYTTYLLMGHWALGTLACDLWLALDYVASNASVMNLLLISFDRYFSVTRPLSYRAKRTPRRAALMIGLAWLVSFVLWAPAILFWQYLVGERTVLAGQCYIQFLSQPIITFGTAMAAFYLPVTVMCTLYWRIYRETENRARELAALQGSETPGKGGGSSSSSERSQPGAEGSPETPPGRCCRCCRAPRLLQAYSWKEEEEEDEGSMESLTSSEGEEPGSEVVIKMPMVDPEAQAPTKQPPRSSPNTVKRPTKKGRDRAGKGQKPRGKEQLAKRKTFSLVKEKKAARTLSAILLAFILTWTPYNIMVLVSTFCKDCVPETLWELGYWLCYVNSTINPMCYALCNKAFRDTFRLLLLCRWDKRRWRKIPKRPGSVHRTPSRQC
Procedure: [Worded in the source for another target; used here, by the source, with some conditions changed.] The binding of antagonists to Gq-coupled receptors was determined by measuring IP3-mediated calcium depletion from the endoplasmic reticulum (ER). This was accomplished using CHO-K1 cells stably transfected with human M3 muscarinic acetylcholine receptor (CEM3000000, cDNA Resource Center, Bloomsburg University) and R-CEPIAer, a low affinity ER-targeted calcium indicator fluorescent protein ([Suzuki et al., 2014]). R-CEPIAer reporting of ER calcium concentration was assessed using 564 nm excitation light (>590 long-pass emission) at 20 second intervals on a Nikon swept-field confocal microscope using slit-scan mode, 2x2 Binning, and 100 millisecond frames. F/Fmax was fluorescence intensity normalized to maximal fluorescence intensity during the experiment. The response of cells to Gq-coupled receptor agonist were measured as the change in F/Fmax (ΔF/Fmax) from preagonist value to fluorescence minimum during agonist application (that occurs by IP3-mediated ER calcium depletion). […] Perfusion of each agonist application was for 2 min, while the antagonist overlapped and preceded the second agonist application by 3 min. […] IC50 was calculated by assaying fractional inhibition using a dose-response of antagonist concentrations (i.e. Figure 1D ). […]

c1cc2cc(c1)C[n+]1ccc(c3ccccc31)NCc1ccc(cc1)CNc1cc[n+](c3ccccc13)C2 [UCL 1684, 6,12,19,20,25,26-Hexahydro-5,27:13,18:21,24-trietheno-11,7-metheno-7H-dibenzo [b,n] [1,5,12,16]tetraazacyclotricosine-5,13-diium dibromide]
Relaxation response of bladder (bladder): 31.4 ± 8.4
Calcium response (integral) to second carbachol relative to first ([1]; 3.5 μM UCL 1684, 0.5 μM carbachol, human BSMC): 0.38 ± 0.10
activity at 3.5 µM ([1]; Homo sapiens, BSMC, read-out: CCH-evoked cytosolic calcium, % of control): 38%
IC50 (M1 muscarinic receptor): 0.12 µM
Hill slope of inhibition curve, M1 receptor (M1 muscarinic receptor; 0.5 μM carbachol): 0.67 ± 0.5
